Counter-ions that a name gives are not always drawn.
Columns and labels:
[1] = Determination of the hygroscopicity of the crystalline salts (weight variation and Karl Fischer in humidity chamber); type: physicochemical; conditions: for KF (t = 0): Karl Fischer value at the beginning of the study; for KF (t = 6 days): Karl Fischer value at the end of the study, 6 days in humidity chamber; for hygroscopicity according to the scale: class by % incorporation of water; for Δ % weigth 24 h / Δ % weigth 48 h / Δ % weigth 6 days: humidity chamber, 64% relative humidity, 25±2° C.
Text: The objective was to measure the hygroscopicity of the salts of the present invention, and comparing it with the one of the known salt of each counter part of the salts. The increasing of the weight will be measured in order to evaluate the incorporation of water in the samples, together with the Karl Fischer factor.
According to “Technical guide for the elaboration of monographs” special issue PharmaEuropa, 3rd ed., December 1999, the hygroscopicity is defined based on the augmentation of weight after 24 hours of exposition to 80% of relative humidity at 25° C. The scale is the following:
Methods: • Preparation of the Humidity chamber: A supersaturated solution of sodium nitrite (45 g/50 ml) is prepared and introduced in a humidification chamber (samplaterecord). The chamber is maintained at a temperature of 25±2° C. during 24 hours before use, and humidity is controlled each day. […] 102.2 mg of sodium naproxen. • The samples are introduced in the conditioned humidity chamber, and the weight is controlled after 24 hours, 48 hours, and 6 days, till an equilibrium is reached (2 successive control with a variation of weight less than 0.2 mg). • The Karl Fischer is also determined (using a Methrom 756 KF) at the beginning and at the end of the study.
The variation of the weight is controlled and the following percentage is calculated: Δ% weigth=(Pn−P1)/P1×100 wherein: P1 is the initial weight, Pn is the weight measured for the sample.

[2] = system: TNBS-induced colonic hypersensitivity; test: TNBS-induced colonic hypersensitivity (visceral pain model, colonic distension); type: in vivo, Male Sprague-Dawley rats; conditions: rats, day 7 after TNBS, 5 mg/kg orally, FIG. 12
Experimental: The effect of the salts of the present invention on pain is measured in a model of visceral pain well known in the art: the TNBS-induced colonic hypersensitivity. In this model, the injection of trinitrobenzene sulfonic acid (TNBS) into the proximal colon provoke chronic colonic hypersensitivity, measured in conscious rats by a decreased pain threshold in response to colonic distension.
The animals are Male Sprague-Dawley rats (360-400 g, France). They were housed in a temperature (19.5° C. 24.5° C.) and relative humidity (45%-65%) controlled room with a 12 h—light/dark cycle, with ad libitum access to standard pelleted laboratory chow and water throughout the study.
Fasted (24 hours) animals were undergoing surgery for administration of TNBS (50 mg/kg) into the proximal part of the colon. […]
Day 7 after TNBS injection: Compounds were administered and the colonic hypersensitivity due to TNBS-induced colonic inflammation was measured before the treatment, and at t=20, 45, 90 and 120 min after treatment. […]
The 95% confidence intervals of each of the arithmetic means were also calculated.
Statistical significance between the treated groups and the vehicle-treated group was determined by a two-way repeated measures ANOVA followed, when F-value is significant, by an appropriate post-hoc comparison (Bonferroni's test) using SigmaStat software.

Q: Which results are given for `COc1ccc2cc([C@H](C)C(=O)[O-])ccc2c1.[Na+]` [sodium naproxen]?
A: KF (t = 0) [1]: 1.04; KF (t = 6 days) [1]: 12.65; hygroscopicity according to the scale [1]: hygroscopic; Δ % weigth 24 h [1]: 14.39%; Δ % weigth 48 h [1]: 14.39%; Δ % weigth 6 days [1]: 14.3%

Q: Which “colonic threshold (pain threshold to colonic distension)” value ([2]; 20-120 min after treatment) does the source give for “(R,R)-Tramadol-(S)-Naproxene Salt [Example 2]” here?
A: nearly recovering the same level of colonic threshold than the naive animal

Q: And the “anti-hypersensitive effect compared with the corresponding combination (Combo-02)” value [2]?
A: superior effect

Q: What does the source list for `COc1cccc(C2(O)CCCCC2CN(C)C)c1` (centres unmarked) [tramadol hydrochloride]?
A: KF (t = 0) [1]: 0.45; KF (t = 6 days) [1]: 0.23; hygroscopicity according to the scale [1]: slightly hygroscopic; Δ % weigth 24 h [1]: 0.19%; Δ % weigth 48 h [1]: 0.26%; Δ % weigth 6 days [1]: 0.18%

From US8168679B2, “Salts of Tramadol and Naproxen and their crystal forms in the treatment of pain” (Laboratorios del Dr. Esteve, S.A., priority 2007, dated 2012)
